Laboratory results taken from patent publication US10093694B2, “Compounds for treating eye disorders or diseases” (Guangzhou KangRui Biological Pharmaceutical Technology Co, …, priority 2016, dated 2018).

Assays:
mouse lenses (cataract) = test: Cataract studies: dissected mouse cataract lenses incubated with compound, scored for clarity; conditions: incubated with compound at the indicated concentrations for 4 hours at room temperature, PBS negative control showed no lens opacity change
Experimental: (§1) FIGS. 14A and 14B show cataract lenses that have been treated with Compound 1. FIG. 14A show mouse lenses (white) that were dissected from the eye and placed into phosphate buffered saline solution (PBS) overnight at 4° C. Cataract was visible in all lenses. The cataract lenses were incubated with Compound 1 at the indicated concentration for 4 hours at room temperature and then scored for clarity. […] The PBS solution served as negative control and there were no lens opacity change.
as §1, with “15A” for “14A”, “15B” for “14B”, “2.” for “1.”, “2” for “1”

mouse eyes (cataract) = test: Cataract studies: mouse eyes treated with eye drop solution; assay type: in vivo; conditions: eye drop solution 100 μM, three times a day, 50 μl each time, 6 weeks, versus negative control
Experimental: FIGS. 16A and 16B show the result of mouse eyes treated with an eye drop solution containing Compound 1 at 100 μM concentration three times a day for 50 μl each time for 6 weeks.

Row | SMILES | lens clarity / cataract after treatment (mouse lenses (cataract)) | clarity / cataract of treated eye (mouse eyes (cataract))
1 | C[C@H](CCC(Br)C(C)(C)O)[C@H]1CC[C@@]2(C)C3=C(CC[C@]12C)[C@@]1(C)CC[C@H](O)C(C)(C)[C@@H]1CC3 (stereo partly drawn) [Compound 1, (3S,5R,10S,13R,14R,17R)-17-((2R)-5-bromo-6-hydroxy-6-methylheptan-2-yl)-4,4,10,13,14-pentamethyl-2,3,4,5,6,7,10,11,12,13,14,15,16,17-tetradecahydro-1H-cyclopenta[a]phenanthren-3-ol] | Increased lens clarity and reduced cataract | increased clarity and reduced cataract
2 | C[C@H](CCCC(C)(C)O)[C@H]1CC[C@@]2(C)C3=C(CC[C@]12C)[C@@]1(C)CC[C@H](O)C(C)(C)[C@@H]1CC3 [Compound 2, (3S,5R,10S,13R,14R,17R)-17-((R)-6-hydroxy-6-methylheptan-2-yl)-4,4,10,13,14-pentamethyl-2,3,4,5,6,7,10,11,12,13,14,15,16,17-tetradecahydro-1H-cyclopenta[a]phenanthren-3-ol] | Increased lens clarity and reduced cataract | 
